7 compounds from US6716857B2, “Tetrahydropyridine derivatives acting on muscarinic acetylcholine receptors” (Korea Institute of Science and Technology, priority 2001, dated 2004) can be followed below.

As a reminder, the inhibition is the drop in the measured response relative to a control, in per cent. Broadly, the IC50 is the concentration that gives 50% inhibition.

Assay [1] addresses T1, human recombinant muscarinic receptor subtype 2 (M2) expressed in CHO cells (Homo sapiens, UniProt P08172).
T1 construct: purchased Biosignal, Canada; host or cells: CHO cells
T1 sequence (P08172 1-466): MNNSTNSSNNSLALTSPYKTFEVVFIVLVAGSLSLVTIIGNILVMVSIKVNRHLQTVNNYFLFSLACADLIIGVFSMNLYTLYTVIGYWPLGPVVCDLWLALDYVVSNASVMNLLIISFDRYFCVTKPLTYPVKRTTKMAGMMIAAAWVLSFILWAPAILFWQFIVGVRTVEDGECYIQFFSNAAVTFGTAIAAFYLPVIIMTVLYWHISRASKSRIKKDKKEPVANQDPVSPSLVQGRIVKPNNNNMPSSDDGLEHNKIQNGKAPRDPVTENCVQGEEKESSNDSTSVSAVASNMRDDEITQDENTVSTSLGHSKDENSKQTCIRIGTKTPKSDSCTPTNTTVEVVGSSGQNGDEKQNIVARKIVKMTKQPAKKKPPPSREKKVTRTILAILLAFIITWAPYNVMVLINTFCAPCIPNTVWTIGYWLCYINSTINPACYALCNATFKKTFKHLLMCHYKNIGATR
The assay can be described thus: [3H]-N-methyl-scopolamine ([3H]-NMS) affinity screening test, M2. To be noted: inhibition of specific [3H]-NMS binding, compound at 1 μM. An excerpt: (§1) [^3H]-N-methyl-scopolamine ([^3H]-NMS) Affinity Screening Test
(§2) In order to exclude the interaction between subtypes, human recombinant muscarinic receptor subtypes 1, 2 and 3 expressed in CHO cells (M1, M2 and M3, Biosignal, Canada) were purchased and used as receptor sources. [^3H]-N-methyl-scopolamine (NEN, NET-636) was used as radioisotope labeled ligands, and atropine was used for the measurement of the non-specific binding ability. About 10 kinds of experimental apparatuses including Liquid Scintillation Counter (MicroBeta 1450 plus), Inotech cell harvester (96-well) were used.
In order to determine the effect of each compound on M1 and M2 receptors, the compounds were reacted with the receptors using radioisotope labeled ligands. After the reaction, the excess unbound ligands were removed by filtering with a glass fiber filter. The amount of radioisotopes remaining on the washed filter plate was then measured to quantify the binding reaction between the receptors and the ligands and, from the result, the affinity of the drugs for the receptors was determined.
(§3) The freeze-stored receptors at −70° C. were suspended in test buffer solutions and then the screening test (BioRad protein) was carried out to determine the optimum concentration of the proteins. Thereafter, 50 μL of hot-ligands and 10 μL of test drugs were added to 96-well plate and 100 μL of 50 mM TRIS buffer (pH 7.2) containing 10 mM MgCl2 and 1 mM EDTA was added as a test buffer. The final volume of the reaction was 0.25 mL. The reaction was initiated by adding 100 μL of the diluted receptor suspension, and continued for 60 minutes on a shaking incubator at 27° C. This test was repeated four times. After 60 minutes, the reaction was terminated by adding cold TRIS buffer (0.5 mL, pH 7.4). The excess unbound radioisotopes were removed from the reaction mixture using Inotech cell harvester system. After washing the mixture, the radioactivity detected by the filter mat was measured using Liquid Scintillation Counter. As primary stage of the efficacy screening, the drugs at two concentrations (1 μM, 10 μM) were screened for their affinity for the receptors. As secondary stage, drugs showing remarkable efficacies were determined at the lower concentrations. Finally, IC50 values were calculated at the gradient of 10 concentrations. The test drugs were diluted sequentially for the required concentrations by dissolving them in dimethylsulfoxide (DMSO). […] From the saturation affinity screening test, Kd and Bmax values, and IC50 or Ki values of each test drugs were calculated by observing the non-linear regression using prism (Graphpad software Inc.,USA).
(§4) In the equilibrium affinity screening test, [^3H]-N-methyl-scopolamines at the gradient of 12 concentrations were used for the measurement of the binding ability (IC50). In the competition screening test, 1 nM of [^3H]-N-methyl-scopolamines, and the reference drugs at the gradient of 10 concentrations were used for the measurement. 4-DAMP-methyliodide, Pirenzepine, p-F-hexahydro-sila-defenidol, Methoctramine, and the like were used as reference drugs.

The target of assay [2] is T2, human recombinant muscarinic receptor subtype 1 (M1) expressed in CHO cells (Homo sapiens, UniProt P11229).
T2 construct: purchased Biosignal, Canada; host or cells: CHO cells
T2 sequence (P11229 1-460): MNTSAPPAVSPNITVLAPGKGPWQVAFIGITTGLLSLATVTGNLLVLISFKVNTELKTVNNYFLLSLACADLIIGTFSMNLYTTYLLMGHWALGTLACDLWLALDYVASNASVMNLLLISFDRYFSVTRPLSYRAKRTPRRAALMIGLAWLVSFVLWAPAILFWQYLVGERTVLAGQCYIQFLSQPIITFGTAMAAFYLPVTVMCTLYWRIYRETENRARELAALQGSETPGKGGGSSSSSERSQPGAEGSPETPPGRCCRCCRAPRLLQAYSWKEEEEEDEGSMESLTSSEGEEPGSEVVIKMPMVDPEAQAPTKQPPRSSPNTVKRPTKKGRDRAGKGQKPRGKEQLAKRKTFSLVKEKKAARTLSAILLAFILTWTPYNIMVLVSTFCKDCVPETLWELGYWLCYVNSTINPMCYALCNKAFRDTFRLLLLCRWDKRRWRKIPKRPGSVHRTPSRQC
The assay can be described thus: [3H]-N-methyl-scopolamine ([3H]-NMS) affinity screening test, M1. To be noted: inhibition of specific [3H]-NMS binding.
Description: as §1, §2
In order to determine the effect of each compound on M1 and M2 receptors, the compounds were reacted with the receptors using radioisotope labeled ligands. After the reaction, the excess unbound ligands were removed by filtering with a glass fiber filter.
as §3, with “As secondary stage, drugs showing remarkable efficacies were determined at the lower concentrations.” left out
as §4

Assay [3] has as its system Oxo-M binding receptor of muscarinic receptors (rat forebrain synapse membranes). The assay can be described thus: [3H]-oxotremorine-M ([3H]-Oxo-M) affinity screening test. To be noted: ratio IC50 NMS / IC50 Oxo-M; >180 full agonist, 14 to 130 partial agonist, 0.2 to 1.9 antagonist. An excerpt:
(§5) [^3H]-oxotremorine-M ([^3H]-Oxo-M) Affinity Screening Test
(§6) The experimental principle was the same as [^3H]-NMS affinity screening test. […] The functions of the compounds may be determined by carrying out both of [^3H]-NMS and [^3H]-Oxo-M (oxotremorine) affinity screening tests to measure their respective IC50 values and calculating ratios (NMS/Oxo-M) of the measured IC50 values.
(§7) Synapse membranes for binding assay of Oxo-M binding receptor of muscarinic receptors were directly prepared and used in the laboratory as follows: male Sparague-Dawley rats (supplied from Laboratory Animal Center of Korea Research Institute of Chemical Technology, 250 to 300 g) were sacrificed by decapitation. The brain tissues were immediately removed from and the forebrain was obtained, which was sectioned into small pieces. After adding 10-fold amount of ice-cooled solution of sucrose (0.32M), the sectioned forebrain was homogenized using Teflon-glass homogenizer (Contorque, Eberbach) at 10 strokes and 500 rpm, centrifuged at 1000 g for 15 minutes, and then the supernatant was again centrifuged at 17000 g for 20 minutes. The pellet was stored at −20° C. and then used.
(§8) Before the pellet was used at this assay, it was suspended in 10 mL of 20 mM HEPES buffer (pH 7.4), again centrifuged at 17000 g for 15 minutes and then washed. Finally, the washed membrane was diluted in ice-cooled 20 mM HEPES buffer (pH 7.4) to the final concentration of 1:100 (wet wt/v) and used at this assay. All test samples were tested four times, and 20 mM HEPES buffer (pH 7.4) was used as a buffer for screening test. The final volume of reaction was 1 mL, and 24-well plate (costar 24-well) was used. 50 μL of hot-ligand (Oxo-M 5 nM) and 10 μL of test drugs were included therein, and the reaction was initiated by adding 750 μL of synapse membrane and continued at 30° C. for 40 minutes on the shaking incubator. 2 μM atropine was used for non-specific binding in all tests. After completion of the reaction, the receptor binding ligands and non-binding ligands were separated by using Inotech cell harvester (24-channels, Inotech, Switzerland) and filtering under reduced pressure (10×ice-cooled saline) with Wallac GF/C filter (pre-immersed in 0.05% polyethylene imine). The radioactivity of the receptor binding ligands was detected by Liquid Scintillation Counter (MicroBeta Plus, Wallac, Finland).
(§9) The test drugs were diluted sequentially for the required concentrations by dissolving them in dimethylsulfoxide (DMSO) and used in the test. […] From the saturated affinity screening test, Kd and Bmax values, and IC50 or Ki values of respective test drugs were calculated by observing the non-linear regression using prism (Graphpad software Inc., USA). The saturated affinity screening test was carried out in the range of 0.1 to 10 nM of [^3H]-Oxo-M ligand as described above.

The test system of assay [4] is T3, Oxo-M binding receptor of muscarinic receptors (rat forebrain synapse membranes).
T3 construct: under head M1
Described as above. To be noted: inhibition of specific [3H]-Oxo-M binding, under head M1; for M1 Oxo-M (1 μM) inhibition: compound at 1 μM.
Description: as §5, §6, §7, §8, §9

Molecules are shown by their SMILES.

Regarding `CN1CCC=C(C(CN2CCCC2=O)=NOCc2ccccc2)C1` (mixture of isomers) [Example 29, 1-[2-benzyloxyimino-2-(1-methyl-1,2,5,6-tetrahydro-pyridin-3-yl)-ethyl]-pyrrolidin-2-one], the inhibition at 1 µM in assay [1] was 0%. In assay [2], the IC50 stood at 79.2 µM. The inhibition at 10 µM in assay [2] (compound at 10 μM) stood at 0%. Also, the “NMS/Oxo-M (ratio of IC50 values)” value in assay [3] is 486. Besides, in assay [4], the “M1 Oxo-M (1 μM) inhibition” value is 78.4% and the IC50 was found to be 0.163 µM.

Regarding `COC(=O)C1=CCCN(C)C1` [Arecoline, reference compound], in assay [4], the “M1 Oxo-M (1 μM) inhibition” value stood at 85.5% and the IC50 stood at 0.14 µM.

Take `CN1CCC=C(C(CCN2CCCC2=O)=NO)C1` [Example 16, 1-[3-hydroxyimino-3-(1-methyl-1,2,5,6-tetrahydro-pyridin-3-yl)-propyl]-pyrrolidin-2-one]: the inhibition at 1 µM in assay [1] came to 22.6%. In addition, the IC50 in assay [2] came out at 17.4 µM. The inhibition at 10 µM in assay [2] (compound at 10 μM) is 39.5%. The “NMS/Oxo-M (ratio of IC50 values)” value in assay [3] stood at 236. In addition, in assay [4], the “M1 Oxo-M (1 μM) inhibition” value worked out at 92.4% and the IC50 is 0.074 µM.

For the compound `C#CCON=C(CCN1CCCC1=O)C1=CCCN(C)C1` [Example 18, 1-[3-(1-methyl-1,2,5,6-tetrahydro-pyridin-3-yl)-3-propyn-2-yloxyimino-propyl]-pyrrolidin-2-one], the inhibition at 1 µM in assay [1] is 26.8%. Moreover, the IC50 in assay [2] was 13.4 µM; in assay [4] it was 0.381 µM. For the same compound, the inhibition at 10 µM in assay [2] (compound at 10 μM) was found to be 42.9%. In addition, in assay [3], the “NMS/Oxo-M (ratio of IC50 values)” value is given as 35. Moreover, the “M1 Oxo-M (1 μM) inhibition” value in assay [4] is reported as 75.3%.

`C#CCON=C(CN1CCCC1=O)c1cccnc1` [Example 24, 1-(2-propyn-2-yloxyimino-2-pyridin-3-yl-ethyl)-pyrrolidin-2-one]: the “M2 NMS (1 μM) inhibition” value in assay [1] came out at 0%. The “M1 NMS (10 μM) inhibition” value in assay [2] (compound at 10 μM) was found to be 0%. Further, in assay [3], the “NMS/Oxo-M (ratio of IC50 values)” value is 306. For the same compound, in assay [4], the “M1 Oxo-M (1 μM) inhibition” value is on record as 58.0% and the IC50 came out at 0.327 µM.

Turning to `CN1CCC=C(C(CN2CCCC2=O)=NO)C1` [Example 26, 1-[2-hydroxyimino-2-(1-methyl-1,2,5,6-tetrahydro-pyridin-3-yl)-ethyl]-pyrrolidin-2-one], in assay [1], the inhibition at 1 µM stood at 94.1%. The concentration for half-maximal inhibition (IC50) in assay [2] was 3.63 µM. The inhibition at 10 µM in assay [2] (compound at 10 μM) stood at 87.6%. Also, the “NMS/Oxo-M (ratio of IC50 values)” value in assay [3] was 4078. In assay [4], the “M1 Oxo-M (1 μM) inhibition” value is on record as 96.9% and the IC50 was 0.00089 µM.

With `CN1CCC=C(C#CCN2CCCC2=O)C1` [Example 30, 1-[3-(1-methyl-1,2,5,6-tetrahydro-pyridin-3-yl)-propyn-2-yl]-pyrrolidin-2-one], the inhibition at 1 µM in assay [1] was found to be 42.3%. Further, the figures for the IC50 in assay [2] and in assay [4] were 10.8 µM and 0.014 µM, respectively. Moreover, in assay [2] (compound at 10 μM), the inhibition at 10 µM is 58.5%. Moreover, in assay [3], the “NMS/Oxo-M (ratio of IC50 values)” value was determined as 774. Moreover, the “M1 Oxo-M (1 μM) inhibition” value in assay [4] stood at 96.6%.
